Assay results from patent publication US11571460B2 (priority 2017, dated 2023).

How the values were obtained:
[1] = system: bone marrow-derived macrophages; test: Phagocytosis assay with latex bead-FITC; format: cell-based, mouse; details: vs control group
Description: Cells were smeared in a 96-assay well plate and treated as described above. The cells were pretreated for 30 minutes with or without cytochalasin D before treatment with latex bead-FITC (Sigma-Aldrich). After 2 hours of incubation, the cells were washed with PBS three times to remove foreign particles. Fluorescence of internalized beads was measured using emission of 527 nm after excitation of 485 nm in a fluorescent plate reader (Fluorskan Ascent FL) quenching with trypan blue.

splenocytes [2] = test: Melittin binding study with rhodamine-bound melittin in splenocytes; format: cell-based, mice
Description: After 1 hour, cells were harvested and the non-binding peptides were washed twice.
Next, the cells were cultured with rhodamine-bound peptides and stained with CD11b-APC antibodies as described above.
Annexin-V was added to a sample before data collection to distinguish dead cells. […] tumor-associated macrophage was stained with CD86-PEcy7 (e-bioscience) or CD206-PercpCy5.5 (Biolegend). The cells were detected in FACS Calibur or FACS CantoII.

lung cancer cells = test: Cell cycle analysis by PI staining and flow cytometry; format: cell-based; details: 0.1 to 2 μg/mL melittin
Description: The cells were collected, washed twice with PBS, fixed with 70% pre-cooled ethanol and stored at −20° C. overnight. The cells were washed and resuspended in PBS 500 μl containing 0.1% Triton X-100 and RNase 20 μg/ml. Next, 50 μg/ml of propidium iodide (PI) was added. Stained cells were cultured at 37° C. for 20 minutes and then detected by a FACS Calibur flow cytometer (Becton Dickinson, San Jose, Calif., USA). Data were analyzed by Flow Jo software (Treestar, Inc., San Carlos, Calif., USA).

[3] = Body weight of tumor-bearing mice; format: in vivo
Description: The weights of mice were measured every 2 to 3 days until 0 to 18 days.

[4] = Blood cell profile test (hematological profiling); format: in vivo, mice
Description: The blood was collected from the retro-orbital plexus of mice under anesthesia. The blood was immediately mixed with EDTA and analyzed by a Hemavet 950 auto-sampler (Drew scientific, Waterbury, Conn., USA) according to manufacturer's instructions. The parameters of leukocytes, erythrocytes, and platelets were measured and expressed as a percentage.
The blood was collected via the retro-orbital plexus during anesthesia.

tumor tissue = test: Immunofluorescence confocal microscopy of VEGF and CD31 in tumor tissue; format: in vivo, mice
Description: The tumor of inoculated mice was fixed overnight with paraformaldehyde, dehydrated, and then placed in paraffin. Slices (5 μm thick) of the inserted tissue were cut in a rotary microtome and deparaffinized. The antigens of the slides were recovered by an autoclave in a trisodium citrate buffer (pH 6) for 1 minute, washed with PBS and then blocked for 1 hour with 1.5% BSA containing 0.2% Triton X-100. The slides were cultured overnight at 4° C. with anti-VEGF and anti-CD31 primary antibodies (1:200, Santa Cruz Biotechnology, Santa Cruz, Calif., USA).
All tissue slices were cultured at room temperature for 1 hour and then visualized with an alexa-488 or alexa-594 conjugated secondary antibody (1:500, Invitrogen). All the antibodies were diluted with a 0.5% BSA solution and cultured in a wet chamber. The slides were fixed with a DAPI solution and analyzed by laser scanning confocal microscopy (Bio-Rad, Richmond, Calif., USA). All images were captured with LSM and total integration density was measured with image J software.

[5] = system: bone marrow-derived macrophages (BMDM); test: Quantitative real-time PCR in bone marrow-derived macrophages; format: cell-based, mouse
Description: (§1) Cells were harvested as previously described to generate mouse bone marrow-derived macrophages. The cells were cultured for 7 days in an RPMI-1640 complete culture medium containing 10 ng/ml of mouse recombinant M-CSF (R & D systems, Minneapolis, Minn., USA). After the cells were differentiated into M0 macrophages, the cells were smeared in a 6-well plate (1×10^6 cells/well) and cultured overnight under 100 ng/ml LPS or 20 ng/ml mouse recombinant IL-4 (R & D system) to induce differentiation of M1 or M2 phenotype macrophages.
(§2) Quantitative real time PCR was performed according to previous reports. Data were expressed as […] for experimental genes, normalized to GAPDH, and expressed as a fold change compared to an LPS or IL-4 untreated control group. The following primers were used: Gapdh(for: […] (SEC) ID NO: 1); rev: […] (SEQ ID NO: 2)), Tnf-α(for: TTCTG […] (SEQ ID NO: 3); rev: GTAT […] (SEQ ID NO: 4), Mrc1/CD206(for: […] (SEQ ID NO: 5); rev: GGTT […] (SEQ ID NO: 6)), I1-10(for: […] (SEQ ID NO: 7); rev: […] (SEQ ID NO: 8)), Tgf-β(for: […] (SEQ ID NO: 9); rev: […] (SEQ ID NO: 10)), Vegf(for: GGAGA […] (SEQ ID NO: 11); rev: […](SEQ ID NO: 12)), F1t1/VEGFR1(for: […] (SEQ. ID NO: 13); rev: […] (SEQ ID NO: 14)).

[6] = system: Lewis lung carcinoma cells; test: Quantitative real-time PCR in Lewis lung carcinoma cells; format: cell-based; details: control vs melittin-treated
Description: as §2

[7] = system: tumor-associated macrophages (TAM); test: Flow cytometry of tumor-associated macrophages in tumor tissue; format: in vivo, mice
Description: (§3) A tissue was dissociated by cutting the tumor into thin pieces and gently stirring in DNase I (1 U/ml; Roche, Indianapolis, trypsin-EDTA (Gibco)) under DMEM (Welgene) preheated at 37° C. for 1 hour. The tissue was mechanically dissociated in a 100 μm nylon mesh strainer, then single cells passed through a 40 μm nylon mesh strainer, and the spleen was mechanically dissociated with a 40 μm nylon mesh strainer. RBC was dissolved for 5 minutes in a 1× pharmlyse buffer.
(§4) The cells were stained with fluorescent tag antibodies. All data were detected by a FACS Calibur flow cytometer and analyzed with FlowJo software. CD45-FITC, CD3-FITC, CD4-PE, CD4-FITC, CD8-APC, CD11b-APC, CD11 c-PE, CD25 (CD12-FITC)-PE, CD25-APC, B220-FITC, CD19-PE, CD86-APC, and Foxp3-Alexa Fluor647 were purchased from BD bioscience and F4/80-PE and CD206-APC were purchased from Biolegend (San Diego, Calif., USA).
(§5) Lewis lung carcinoma cells were mixed with a Matrigel matrix (Coming, N.Y., USA) to generate a tumor model. Male C57BL/6 wild-type mice (6 to 8 weeks old) were inoculated subcutaneously in the right flank with 5×10^4 cells per mouse. […] Before 3 days of tumor injection, macrophage deficiency was performed by clodronate liposomes (first dose of 200 μl per mouse, maintenance dose of 100 μl intraperitoneally every 4 days). Clodronate liposome and control liposome were purchased from FormuMax (Sunnyvale, Calif., USA). A tumor size was monitored every 2 to 3 days by measuring two opposite diameters (volume=length×width×width/2). If the tumor size exceeded 5% of the body weight, the mice were sacrificed for a next experiment set. Thereafter, the tumor and the spleen were surgically removed.

splenocytes [8] = test: Flow cytometry of immune cells in splenocytes of tumor-bearing mice; format: in vivo
Description: as §3, §4, §5
Screening of the immune cells was performed by flow cytometry on CD4^+ T cells, CD8^+ T cells, B cells, dendritic cells, and macrophages from splenocytes of mice with cancer. The flow cytometry was performed in the same manner as Example 3-2.

[9] = system: bone marrow-derived macrophages (BMDM); test: ELISA of cytokines in BMDM culture supernatant; format: cell-based, mouse
Description: as §1
The secretion of cytokine from the culture medium was analyzed using an ELISA kit according to a procedure recommended by a provider. Mouse IL-10 and
TNF-α were purchased from BD Biosciences, and TGF-β was purchased from R & D systems. Results were expressed as pg of normalized cytokine per mg of total protein.

[10] = system: M1-type bone marrow-derived macrophages; test: Intracellular ROS production by H2DCFDA staining; format: cell-based, mouse; details: melittin-treated vs control, 24 hours
Description: The cells were added with 5 μM C2′,7′-dichlorodihydrofluorescein diacetate (H2DCFDA; molecular probe) and cultured at 37° C. for 30 minutes. The H2DCFDA-containing medium was removed and the cells were washed twice with preheated PBS. After the cells were collected, ROS production levels were immediately analyzed using flow cytometry.

[11] = system: Lewis lung carcinoma cells; test: Tumor growth and survival in mice injected subcutaneously with Lewis lung carcinoma cells; format: in vivo, C57BL/6 mice
Description: A cancer growth rate in the control group was fast, but the cancer growth in the melittin-treated group was late.
as §5

[12] = system: bone marrow-derived macrophages (BMDM); test: Western blot analysis of BMDM; format: cell-based, mouse
Description: as §1
Total proteins were extracted using a RIPA buffer from melittin or PBS treated-bone marrow-derived macrophages and quantified by Bio-Rad analysis. 20 μg of protein was isolated on an 8% SDS Tris-glycine gel and transferred to a nitro cellulose cell membrane (Invitrogen). The following antibodies and dilution factors were used: VEGF goat polyclonal antibody (sc-1836, 1:1000, Santa Cruz), actin goat polyclonal antibody (sc-1616, 1:1000, Santa Cruz), […] CD206 (MCA2235GA 1:200, AbD serotec), anti-goat IgG conjugated to HRP (SA007, 1:1000, GenDEPOT), and anti-rat IgG bound to HRP (405405, 1:1000, Biolegend). Protein bands were visualized using an ECL solution (GE healthcare) and measured with Image J software. The strength of the protein has been normalized above that of actin.

[13] = melittin-treated tumor-bearing mice

## C=C1[C@@H](C)[C@H]2[C@H](Cc3ccccc3)NC(=O)[C@]23[C@H](OC(C)=O)/C=C/[C@@](C)(O)C(=O)[C@@H](C)C/C=C/[C@H]3[C@@H]1O [cytochalasin D, reference compound]
[1]
  phagocytic capacity / phagocytosis index: significantly lowered
Splenocytes [2]; 10 nM cytochalasin D pretreatment vs DMSO control
  melittin+CD11b+ double positive cells in total CD11b+ cell population: no difference

## CC[C@H](C)[C@H](NC(=O)CN)C(=O)NCC(=O)N[C@@H](C)C(=O)N[C@H](C(=O)N[C@@H](CC(C)C)C(=O)N[C@@H](CCCCN)C(=O)N[C@H](C(=O)N[C@@H](CC(C)C)C(=O)N[C@H](C(=O)N[C@H](C(=O)NCC(=O)N[C@@H](CC(C)C)C(=O)N1CCC[C@H]1C(=O)N[C@@H](C)C(=O)N[C@@H](CC(C)C)C(=O)N[C@H](C(=O)N[C@@H](CO)C(=O)N[C@@H](Cc1c[nH]c2ccccc12)C(=O)N[C@H](C(=O)N[C@@H](CCCCN)C(=O)N[C@@H](CCCNC(=N)N)C(=O)N[C@@H](CCCCN)C(=O)N[C@@H](CCCNC(=N)N)C(=O)N[C@@H](CCC(N)=O)C(=O)N[C@@H](CCC(N)=O)C(N)=O)[C@@H](C)CC)[C@@H](C)CC)[C@@H](C)O)[C@@H](C)O)C(C)C)C(C)C [melittin]
Lung cancer cells
  direct killing effect on cancer cells: no direct killing effect
Lung cancer cells; 24 hours
  percentage of cells at each cell cycle stage: no percentage change
[3]; day 0
  weight of mice: 22.84±0.36
[3]; day 18
  weight of mice: 24.72±0.45
[3]; measured every 2 to 3 days, 0 to 18 days
  weight loss: no weight loss
[4]; 0.5 mg/kg or 1 mg/kg melittin
  hematological factors (WBC, RBC, Hgb, HCT, MCV and MCH): did not result in significant changes
[4]; judged from N/L ratio
  acute cytotoxic damage: does not cause acute cytotoxic damage
Tumor tissue; 0.5 mg/kg and 1 mg/kg vs PBS control group
  integrated density of VEGF (image J): significant difference
Tumor tissue; compared to a PBS group
  level of CD31 by immunofluorescence staining: decrease
  level of VEGF by immunofluorescence staining: decrease
[5]; LPS stimulation
  gene level of TNF-α: did not affect
[5]; M2-type BMDM (IL-4)
  gene expression level of IL-10: not changed
  gene expression level of TGF-β: not changed
  mRNA level for Mrc1/Cd206 compared to the control group: significantly reduced
  mRNA level for Vegf compared to the control group: significantly reduced
[6]
  mRNA level of Vegf: no large difference
  mRNA level of flt1/VFGFR: no large difference
[7]; [13]
  percentage of CD11b+F4/80+ macrophages in CD45+ tumor-infiltrating leukocytes: 38.70±0.79%
[7]; tumor, M1-type
  number of F4/80+CD86+ in CD45+ cells: not increased
[7]; tumor, M2-type
  percentage of F4/80+CD206+ in CD45+ cells: 9.53±0.63%
Splenocytes [8]; control vs melittin-treated groups
  other immune cells from total splenocytes: no percentage change
Splenocytes [8]; [13]
  CD45+F480+ macrophages in splenocytes: 5.10±0.42
  number of regulatory T cells in splenocytes: decreased slightly
Splenocytes [8]; spleen
  level of M1 or M2 type macrophages in splenocytes: not changed
Splenocytes [2]; 0.5 μg/ml rhodamine-bound melittin, 1 hour
  melittin binding in CD11b+ cells: approximately 16%
Splenocytes [2]; M1 type
  percentage of melittin+CD86+ population in F4/80+ cells: 3.27±0.39%
Splenocytes [2]; M2 type
  percentage of melittin and CD206 double positive population in F4/80+ cells: 9.15±1.05%
Splenocytes [2]; rhodamine-bound melittin
  melittin binding to DC (CD11c): 24.44±0.56
  melittin binding to macrophages (F4/80) in annexinli-CD11b+ melittin+ cells: 67.70±2.96
  melittin binding to neutrophils (Gr-1): 36.36±0.95
[9]; LPS stimulation
  protein level of TNF-α: did not affect
[9]; M2-type BMDM (IL-4)
  protein expression level of IL-10: not changed
  protein expression level of TGF-β: not changed
[10]
  intracellular ROS levels: no difference
[11]; 0.5 mg/kg melittin peptide intraperitoneal, after 13 days of administration
  cancer growth reduced compared to the control group: 40%
[11]; 0.5 mg/kg melittin peptide intraperitoneal, day 15
  cancer growth suppressed compared to the control group: about 45%
[11]; tumor-bearing mice
  survival period vs control group (PBS-treated), Mantel-Cox analysis: significantly longer
[12]
  expression level of CD206 protein: reduced
  expression level of VEGF protein: reduced
